Columns and labels:
[1] = test system: RPMI-8226; experiment: NCI-60 one-dose SRB screen (Leukemia); type: cell-based; settings: Homo sapiens, single dose 10 µM, 48 h, read-out: Growth inhibition percent (GI %)
Experimental: (§1) The National Cancer Institute (NCI) Developmental Therapeutic Program (www.dtp.nci.nih.gov) selected the 20 novel synthesized compounds 4a-e, 5a-e, 6a-c, 9a-e, 10 and 11 to test for their anticancer activity at a single dose of 10 µM using SRB assay. […] Supplementary Data S3; Table S1 presents the detailed screening results of the most promising compounds. The preliminary screening’s detailed results for the remaining compounds are elucidated in the (Supplementary Data S3; Table S2).
(§2) The guidelines of the Drug Evaluation Branch’s protocol at the NCI in Bethesda served as the basis for the in vitro anticancer screening assays. at one dose 10 µM against a panel of 60 cancer cell lines. The human tumor cell lines used belonged to nine panels: leukemia, melanoma, lung, colon, CNS, ovarian, renal, prostate and breast cancers using the sulforhodamine B (SRB) assay in a 48 h drug exposure protocol.

[2] = test system: SR; experiment: NCI-60 one-dose SRB screen (Leukemia); type: cell-based; settings: Homo sapiens, single dose 10 µM, 48 h, read-out: Growth inhibition percent (GI %)
Experimental: as §1, §2

[3] = test system: CCRF-CEM; experiment: NCI-60 one-dose SRB screen (Leukemia); type: cell-based; settings: Homo sapiens, single dose 10 µM, 48 h, read-out: Growth inhibition percent (GI %)
Experimental: as §1, §2

[4] = test system: MOLT-4; experiment: NCI-60 one-dose SRB screen (Leukemia); type: cell-based; settings: Homo sapiens, single dose 10 µM, 48 h, read-out: Growth inhibition percent (GI %)
Experimental: as §1, §2

[5] = test system: K-562; experiment: NCI-60 one-dose SRB screen (Leukemia); type: cell-based; settings: Homo sapiens, K562, single dose 10 µM, 48 h, read-out: Growth inhibition percent (GI %)
Experimental: as §1, §2

[6] = test system: HL-60(TB); experiment: NCI-60 one-dose SRB screen (Leukemia); type: cell-based; settings: Homo sapiens, single dose 10 µM, 48 h, read-out: Growth inhibition percent (GI %)
Experimental: as §1, §2

[7] = test system: PC-3; experiment: NCI-60 one-dose SRB screen (Prostate Cancer); type: cell-based; settings: Homo sapiens, single dose 10 µM, 48 h, read-out: Growth inhibition percent (GI %)
Experimental: as §1, §2

[8] = test system: DU-145; experiment: NCI-60 one-dose SRB screen (Prostate Cancer); type: cell-based; settings: Homo sapiens, single dose 10 µM, 48 h, read-out: Growth inhibition percent (GI %)
Experimental: as §1, §2

[9] = test system: SF-268; experiment: NCI-60 one-dose SRB screen (CNS Cancer); type: cell-based; settings: Homo sapiens, single dose 10 µM, 48 h, read-out: Growth inhibition percent (GI %)
Experimental: as §1, §2

[10] = test system: SF-539; experiment: NCI-60 one-dose SRB screen (CNS Cancer); type: cell-based; settings: Homo sapiens, single dose 10 µM, 48 h, read-out: Growth inhibition percent (GI %)
Experimental: as §1, §2

[11] = test system: SNB-19; experiment: NCI-60 one-dose SRB screen (CNS Cancer); type: cell-based; settings: Homo sapiens, single dose 10 µM, 48 h, read-out: Growth inhibition percent (GI %)
Experimental: as §1, §2

[12] = test system: SF-295; experiment: NCI-60 one-dose SRB screen (CNS Cancer); type: cell-based; settings: Homo sapiens, single dose 10 µM, 48 h, read-out: Growth inhibition percent (GI %)
Experimental: as §1, §2

[13] = test system: U251; experiment: NCI-60 one-dose SRB screen (CNS Cancer); type: cell-based; settings: Homo sapiens, U-251, single dose 10 µM, 48 h, read-out: Growth inhibition percent (GI %)
Experimental: as §1, §2

[14] = test system: SNB-75; experiment: NCI-60 one-dose SRB screen (CNS Cancer); type: cell-based; settings: Homo sapiens, single dose 10 µM, 48 h, read-out: Growth inhibition percent (GI %)
Experimental: as §1, §2

[15] = test system: NCI-H460; experiment: NCI-60 one-dose SRB screen (Non-Small Cell Lung Cancer); type: cell-based; settings: Homo sapiens, single dose 10 µM, 48 h, read-out: Growth inhibition percent (GI %)
Experimental: as §1, §2

[16] = test system: A549/ATCC; experiment: as above; type: cell-based; settings: Homo sapiens, single dose 10 µM, 48 h, read-out: Growth inhibition percent (GI %)
Experimental: as §1, §2

[17] = test system: NCI-H226; experiment: as above; type: cell-based; settings: Homo sapiens, single dose 10 µM, 48 h, read-out: Growth inhibition percent (GI %)
Experimental: as §1, §2

[18] = test system: HOP-92; experiment: as above; type: cell-based; settings: Homo sapiens, single dose 10 µM, 48 h, read-out: Growth inhibition percent (GI %)
Experimental: as §1, §2

[19] = test system: NCI-H522; experiment: as above; type: cell-based; settings: Homo sapiens, single dose 10 µM, 48 h, read-out: Growth inhibition percent (GI %)
Experimental: as §1, §2

[20] = test system: HOP-62; experiment: as above; type: cell-based; settings: Homo sapiens, single dose 10 µM, 48 h, read-out: Growth inhibition percent (GI %)
Experimental: as §1, §2

[21] = test system: NCI-H23; experiment: as above; type: cell-based; settings: Homo sapiens, single dose 10 µM, 48 h, read-out: Growth inhibition percent (GI %)
Experimental: as §1, §2

[22] = test system: NCI-H322M; experiment: as above; type: cell-based; settings: Homo sapiens, single dose 10 µM, 48 h, read-out: Growth inhibition percent (GI %)
Experimental: as §1, §2

[23] = test system: EKVX; experiment: as above; type: cell-based; settings: Homo sapiens, single dose 10 µM, 48 h, read-out: Growth inhibition percent (GI %)
Experimental: as §1, §2

[24] = test system: KM12; experiment: NCI-60 one-dose SRB screen (Colon Cancer); type: cell-based; settings: Homo sapiens, single dose 10 µM, 48 h, read-out: Growth inhibition percent (GI %)
Experimental: as §1, §2

[25] = test system: HT29; experiment: NCI-60 one-dose SRB screen (Colon Cancer); type: cell-based; settings: Homo sapiens, HT-29, single dose 10 µM, 48 h, read-out: Growth inhibition percent (GI %)
Experimental: as §1, §2

[26] = test system: HCT-15; experiment: NCI-60 one-dose SRB screen (Colon Cancer); type: cell-based; settings: Homo sapiens, single dose 10 µM, 48 h, read-out: Growth inhibition percent (GI %)
Experimental: as §1, §2

[27] = test system: HCT-116; experiment: NCI-60 one-dose SRB screen (Colon Cancer); type: cell-based; settings: Homo sapiens, single dose 10 µM, 48 h, read-out: Growth inhibition percent (GI %)
Experimental: as §1, §2

[28] = test system: SW-620; experiment: NCI-60 one-dose SRB screen (Colon Cancer); type: cell-based; settings: Homo sapiens, single dose 10 µM, 48 h, read-out: Growth inhibition percent (GI %)
Experimental: as §1, §2

[29] = test system: HCC-2998; experiment: NCI-60 one-dose SRB screen (Colon Cancer); type: cell-based; settings: Homo sapiens, single dose 10 µM, 48 h, read-out: Growth inhibition percent (GI %)
Experimental: as §1, §2

Q: Which results are given for `COc1ccc(-c2nn(-c3ccc(S(N)(=O)=O)cc3)cc2C(=O)NNC(N)=S)cc1` [Compound 9c, 2-[3-(4-Methoxyphenyl)-1-(4-sulfamoylphenyl)-1H-pyrazole-4-carbonyl] hydrazine-1-carbothioamide]?
A: inhibition at 10 µM [1]: < 5%; inhibition at 10 µM [2]: < 5%; inhibition at 10 µM [3]: < 5%; inhibition at 10 µM [4]: < 5%; inhibition at 10 µM [5]: < 5%; inhibition at 10 µM [6]: < 5%; inhibition at 10 µM [7]: < 5%; inhibition at 10 µM [8]: < 5%; melting point: 205 to 207 °C; inhibition at 10 µM [9]: < 5%; inhibition at 10 µM [10]: < 5%; inhibition at 10 µM [11]: < 5%; inhibition at 10 µM [12]: < 5%; inhibition at 10 µM [13]: < 5%; inhibition at 10 µM [14]: < 5%; inhibition at 10 µM [15]: < 5%; inhibition at 10 µM [16]: < 5%; inhibition at 10 µM [17]: < 5%; inhibition at 10 µM [18]: < 5%; inhibition at 10 µM [19]: 8.06%; inhibition at 10 µM [20]: < 5%; inhibition at 10 µM [21]: < 5%; inhibition at 10 µM [22]: < 5%; inhibition at 10 µM [23]: < 5%; inhibition at 10 µM [24]: < 5%; inhibition at 10 µM [25]: < 5%; inhibition at 10 µM [26]: < 5%; inhibition at 10 µM [27]: < 5%; inhibition at 10 µM [28]: < 5%; inhibition at 10 µM [29]: < 5%

From article PMC12454493, “Insight on novel sulfamoylphenyl pyrazole derivatives as anticancer carbonic anhydrase inhibitors” (Molecular Diversity, 2024)
